Where “and” joins values, the source holds several entries; their conditions need not be identical. Identical values can stand only once.
Assays:
P. aeruginosa = assay: Checkerboard assay (antibiotic potentiation); format: cell-based, Pseudomonas aeruginosa; conditions: for MICantibiotic: antibiotic alone
Protocol: (§1) The interaction between the compounds and the antibiotics was evaluated using the fractional inhibitory concentration (FIC) index. FIC indices of ≤0.5 is synergistic, 0.5 < × ≤ 4 is additive, whereas >4 is antagonistic ([34]).
(§2) Synergy was measured by the FIC index, which is the summation of the individual FICs of the antibiotic and the compound. The FIC is calculated by dividing the MIC of one agent in the presence of another by the MIC of the agent alone. […] The FBS studies were conducted by following a previously published protocol ([29], [50]). The FBS was inactivated by heating at 56°C for 30 min with constant swirling.

E. coli = assay: Checkerboard assay (antibiotic potentiation); format: cell-based, Escherichia coli; conditions: for Interpretation: antibiotic + compound 1; for MICantibiotic + compound: antibiotic MIC with 8 µg/mL (5 µM) compound 1; for MICantibiotic: antibiotic alone; for Potentiation: of antibiotic by 8 µg/mL (5 µM) compound 1
Protocol: as §1, §2

A. baumannii = assay: Checkerboard assay (antibiotic potentiation); format: cell-based, Acinetobacter baumannii; set-up: key to FIC index: sum of FICs; ≤0.5 synergistic, 0.5–4 additive, >4 antagonistic; conditions: for MICantibiotic: antibiotic alone
Protocol: (§3) The interaction between the compounds and the antibiotics was evaluated using the fractional inhibitory concentration (FIC) index. FIC indices of ≤0.5 is synergistic, 0.5 < × ≤ 4 is additive, whereas >4 is antagonistic ([34]). […] .
(§4) The bacterial isolates were acquired from ATCC or the Canadian Ward Surveillance (CANWARD) study ([56]). CANWARD isolates were collected from infected patients admitted to participating medical centers across Canada.
(§5) The antibiotic and compounds were serially diluted 2-fold in CAMHB along the x- and y-axis, respectively, on a 96-well plate that was subsequently incubated with equal volumes of bacterial inoculum overnight at 37°C. Wells containing only media were used as negative controls, and wells containing only bacteria were used as positive controls. Synergy was measured by the FIC index, which is the summation of the individual FICs of the antibiotic and the compound. The FIC is calculated by dividing the MIC of one agent in the presence of another by the MIC of the agent alone. Turbidity was confirmed with a Molecular Devices (United States) EMax Plus microplate reader at a wavelength of 590 nm. The FBS studies were conducted by following a previously published protocol ([29], [50]). The FBS was inactivated by heating at 56°C for 30 min with constant swirling.

[1] = tested on: MDR Gram-negative bacteria clinical isolates; assay: Checkerboard assay, summary over strains; format: cell-based; conditions: of all 14 clinical isolates; number (%)
Protocol: as §1, §5

K. pneumoniae = assay: Checkerboard assay (antibiotic potentiation); format: cell-based, Klebsiella pneumoniae; conditions: for MICantibiotic + compound: antibiotic MIC with 8 µg/mL (5 µM) compound 1; for MICantibiotic: antibiotic alone
Protocol: as §1, §2

E. cloacae = assay: Checkerboard assay (antibiotic potentiation); format: cell-based, Enterobacter cloacae; conditions: E. cloacae 121887 (colistin-resistant)
Protocol: as §3, §4, §5

[2] = P. aeruginosa 262-101856, antibiotic + compound 1
[3] = P. aeruginosa 264-105354, antibiotic + compound 1
[4] = P. aeruginosa 114228 (colistin-resistant), antibiotic + compound 1
[5] = E. coli 94393 (colistin-resistant)
[6] = E. coli 94474 (colistin-resistant)
[7] = A. baumannii 110193, antibiotic + compound 1
[8] = A. baumannii ATCC 17978, antibiotic + compound 1
[9] = K. pneumoniae 113250 (colistin-resistant)

MICantibiotic + compound (P. aeruginosa; P. aeruginosa 259-96916, antibiotic MIC with 8 µg/mL (5 µM) compound 1): 0.5 µg/mL
MICantibiotic (P. aeruginosa; P. aeruginosa 259-96916): 64 µg/mL
MICantibiotic + compound (P. aeruginosa; P. aeruginosa 262-101856, antibiotic MIC with 8 µg/mL (5 µM) compound 1): 2 µg/mL
MICantibiotic (P. aeruginosa; P. aeruginosa 262-101856): >128 µg/mL
MICantibiotic + compound (P. aeruginosa; P. aeruginosa 264-105354, antibiotic MIC with 8 µg/mL (5 µM) compound 1): 0.5 µg/mL
MICantibiotic (P. aeruginosa; P. aeruginosa 264-105354): >64 µg/mL
MICantibiotic + compound (P. aeruginosa; P. aeruginosa 101243 (colistin-resistant), antibiotic MIC with 8 µg/mL (5 µM) compound 1): 4 µg/mL
MICantibiotic (P. aeruginosa; P. aeruginosa 101243 (colistin-resistant)): 16 µg/mL
MICantibiotic + compound (P. aeruginosa; P. aeruginosa 114228 (colistin-resistant), antibiotic MIC with 8 µg/mL (5 µM) compound 1): 16 µg/mL
MICantibiotic (P. aeruginosa; P. aeruginosa 114228 (colistin-resistant)): >64 µg/mL
MICantibiotic + compound (P. aeruginosa; P. aeruginosa PAO1, antibiotic MIC with 8 µg/mL (5 µM) compound 1): 0.5 µg/mL
MICantibiotic + compound (P. aeruginosa; P. aeruginosa PAO1, antibiotic MIC with 8 µg/mL (5 µM) compound 3): 64 µg/mL
MICantibiotic (P. aeruginosa; P. aeruginosa PAO1): 64 µg/mL and 32 µg/mL
MICantibiotic + compound (E. coli; [5]): 0.125 µg/mL
MICantibiotic (E. coli; [5]): 0.5 µg/mL
MICantibiotic + compound (E. coli; [6]): 8 µg/mL
MICantibiotic (E. coli; [6]): 64 µg/mL
MICantibiotic + compound (A. baumannii; A. baumannii 92247 (colistin-resistant), antibiotic MIC with 4 µg/mL (2 µM) compound 1): 0.25 µg/mL
MICantibiotic (A. baumannii; A. baumannii 92247 (colistin-resistant)): 0.25 µg/mL
MICantibiotic + compound (A. baumannii; A. baumannii 110193, antibiotic MIC with 4 µg/mL (2 µM) compound 1): 2 µg/mL
MICantibiotic (A. baumannii; A. baumannii 110193): 2 µg/mL
MICantibiotic + compound (A. baumannii; A. baumannii AB027, antibiotic MIC with 4 µg/mL (2 µM) compound 1): 1 µg/mL
MICantibiotic (A. baumannii; A. baumannii AB027): 2 µg/mL
MICantibiotic + compound (A. baumannii; A. baumannii AB031, antibiotic MIC with 4 µg/mL (2 µM) compound 1): 1 µg/mL
MICantibiotic (A. baumannii; A. baumannii AB031): 2 µg/mL
MICantibiotic + compound (A. baumannii; A. baumannii ATCC 17978, antibiotic MIC with 8 µg/mL (5 µM) compound 3): 0.125 µg/mL
MICantibiotic + compound (A. baumannii; A. baumannii ATCC 17978, antibiotic MIC with ¼ MIC (≤5 µM) of compound 1): 0.004 µg/mL
MICantibiotic + compound (K. pneumoniae; [9]): >4 µg/mL
MICantibiotic (K. pneumoniae; [9]): >4 µg/mL
MICantibiotic + compound (K. pneumoniae; K. pneumoniae 116381): 4 µg/mL
MICantibiotic (K. pneumoniae; K. pneumoniae 116381): 128 µg/mL
MICantibiotic + compound (E. cloacae; antibiotic MIC with 8 µg/mL (5 µM) compound 1): 0.5 µg/mL
MICantibiotic (E. cloacae; antibiotic alone): 0.5 µg/mL
SMILES: CN(C)c1ccc(O)c2c1C[C@H]1C[C@H]3[C@H](N(C)C)C(O)=C(C(N)=O)C(=O)[C@@]3(O)C(O)=C1C2=O [Minocycline]
Interpretation (P. aeruginosa; P. aeruginosa 259-96916, antibiotic + compound 1): Synergy (FIC indices of ≤0.5 is synergistic)
Potentiation (P. aeruginosa; P. aeruginosa 259-96916, of antibiotic by 8 µg/mL (5 µM) compound 1): 128 fold
FIC index (P. aeruginosa; [2]): x < 0.078
Interpretation (P. aeruginosa; [2]): Synergy (FIC indices of ≤0.5 is synergistic)
Potentiation (P. aeruginosa; P. aeruginosa 262-101856, of antibiotic by 8 µg/mL (5 µM) compound 1): ≥128-fold
FIC index (P. aeruginosa; [3]): x < 0.070
Interpretation (P. aeruginosa; [3]): Synergy (FIC indices of ≤0.5 is synergistic)
Potentiation (P. aeruginosa; P. aeruginosa 264-105354, of antibiotic by 8 µg/mL (5 µM) compound 1): ≥256-fold
Interpretation (P. aeruginosa; P. aeruginosa 101243 (colistin-resistant), antibiotic + compound 1): Synergy (FIC indices of ≤0.5 is synergistic)
Potentiation (P. aeruginosa; P. aeruginosa 101243 (colistin-resistant), of antibiotic by 8 µg/mL (5 µM) compound 1): 4 fold
FIC index (P. aeruginosa; [4]): x < 0.313
Interpretation (P. aeruginosa; [4]): Synergy (FIC indices of ≤0.5 is synergistic)
Potentiation (P. aeruginosa; P. aeruginosa 114228 (colistin-resistant), of antibiotic by 8 µg/mL (5 µM) compound 1): ≥8-fold
Interpretation (P. aeruginosa; P. aeruginosa PAO1, antibiotic + compound 1): Synergy (FIC indices of ≤0.5 is synergistic)
Interpretation (P. aeruginosa; P. aeruginosa PAO1, antibiotic + compound 3): Additive (0.5 < × ≤ 4 is additive)
Potentiation (P. aeruginosa; P. aeruginosa PAO1, of antibiotic by 8 µg/mL (5 µM) compound 1): 64 fold
Potentiation (P. aeruginosa; P. aeruginosa PAO1, of antibiotic by 8 µg/mL (5 µM) compound 3): 1 fold
Interpretation (E. coli; [5]): Synergy (FIC indices of ≤0.5 is synergistic)
Potentiation (E. coli; [5]): 4 fold
Interpretation (E. coli; [6]): Synergy (FIC indices of ≤0.5 is synergistic)
Potentiation (E. coli; [6]): 8 fold
Interpretation (A. baumannii; A. baumannii 92247 (colistin-resistant), antibiotic + compound 1): Additive (0.5 < × ≤ 4 is additive)
Potentiation (A. baumannii; A. baumannii 92247 (colistin-resistant), of antibiotic by 4 µg/mL (2 µM) compound 1): 1 fold
FIC index (A. baumannii; [7]): 0.75
Interpretation (A. baumannii; [7]): Additive (0.5 < × ≤ 4 is additive)
Potentiation (A. baumannii; A. baumannii 110193, of antibiotic by 4 µg/mL (2 µM) compound 1): 1 fold
Interpretation (A. baumannii; A. baumannii AB027, antibiotic + compound 1): Additive (0.5 < × ≤ 4 is additive)
Potentiation (A. baumannii; A. baumannii AB027, of antibiotic by 4 µg/mL (2 µM) compound 1): 2 fold
Interpretation (A. baumannii; A. baumannii AB031, antibiotic + compound 1): Additive (0.5 < × ≤ 4 is additive)
Potentiation (A. baumannii; A. baumannii AB031, of antibiotic by 4 µg/mL (2 µM) compound 1): 2 fold
FIC index (A. baumannii; [8]): 0.254
Interpretation (A. baumannii; [8]): Synergy (FIC indices of ≤0.5 is synergistic)
Interpretation (A. baumannii; A. baumannii ATCC 17978, antibiotic + compound 3): Additive (0.5 < × ≤ 4 is additive)
Potentiation (A. baumannii; A. baumannii ATCC 17978, of antibiotic by 8 µg/mL (5 µM) compound 3): 1 fold
Potentiation (A. baumannii; A. baumannii ATCC 17978, of antibiotic by ¼ MIC (≤5 µM) of compound 1): 256 fold
clinical isolates in which the antibiotic was synergized by compound 1 [1]: 8 (57%) strains
Interpretation (K. pneumoniae; K. pneumoniae 116381, antibiotic + compound 1): Synergy (FIC indices of ≤0.5 is synergistic)
Potentiation (K. pneumoniae; K. pneumoniae 116381, of antibiotic by 8 µg/mL (5 µM) compound 1): 32 fold
Interpretation (E. cloacae; antibiotic + compound 1): Additive (0.5 < × ≤ 4 is additive)
Potentiation (E. cloacae; of antibiotic by 8 µg/mL (5 µM) compound 1): 1 fold
